{
  "source": "patent US20240307382A1",
  "about": "“MODULATORS OF THE INTEGRATED STRESS PATHWAY” (Calico Life Sciences LLC, priority 2017, published 2024)",
  "data": [
    {"system": "HEK293T cells carrying the ATF4 luciferase reporter", "assay": "ATF4-Luc assay (ATF4 luciferase reporter, tunicamycin-treated cells)", "type": "cell-based", "settings": "Homo sapiens, HEK-293T, 1 μg/mL tunicamycin, 7 hours", "procedure,_shortened": "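A stable HEK293T reporter line was made by placing the full-length human ATF4 5′-UTR ahead of a firefly luciferase sequence without its start methionine, delivered by retroviral transduction and puromycin selection. Cells were seeded at 30,000 per well in polylysine-coated 384-well plates, exposed next day to 1 μg/mL tunicamycin plus compound for 7 hours, and luminescence was read with One Glo.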", "units": {"EC50": "nM"}, "values": [
      {"smiles": "N#Cc1ccnc(C(=O)NC23CCC(NC(=O)COc4ccc(Cl)c(Cl)c4)(CC2)[C@@H](O)C3)c1", "note": "[Compound 1032, 4-cyano-N-{(3S)-4-[2-(3,4-dichlorophenoxy)acetamido]-3-hydroxybicyclo[2.2.2]octan-1-yl}pyridine-2-carboxamide]", "EC50": "< 50"},
      {"smiles": "N#Cc1ccc(C(=O)NC23CCC(NC(=O)COc4ccc(Cl)c(Cl)c4)(CC2)[C@@H](O)C3)nc1", "note": "[Compound 1033, 5-cyano-N-{(3S)-4-[2-(3,4-dichlorophenoxy)acetamido]-3-hydroxybicyclo[2.2.2]octan-1-yl}pyridine-2-carboxamide]", "EC50": "< 50"},
      {"smiles": "Cc1nc(C(=O)NC23CCC(NC(=O)COc4ccc(Cl)c(Cl)c4)(CC2)[C@@H](O)C3)ccc1C#N", "note": "[Compound 1034, 5-cyano-N-{(3S)-4-[2-(3,4-dichlorophenoxy)acetamido]-3-hydroxybicyclo[2.2.2]octan-1-yl}-6-methylpyridine-2-carboxamide]", "EC50": "< 50"},
      {"smiles": "O=C(COc1ccc(Cl)c(F)c1)NC12CCC(NC(=O)c3ncc(-c4ccccc4)s3)(CC1)C[C@@H]2O", "note": "[Compound 1035, N-{(3S)-4-[2-(4-chloro-3-fluorophenoxy)acetamido]-3-hydroxybicyclo[2.2.2]octan-1-yl}-5-phenyl-1,3-thiazole-2-carboxamide]", "EC50": "< 50"},
      {"smiles": "O=C(COc1ccc(Cl)c(F)c1)NC12CCC(NC(=O)c3coc(-c4ccccc4)n3)(CC1)C[C@@H]2O", "note": "[Compound 1036, N-{(3S)-4-[2-(4-chloro-3-fluorophenoxy)acetamido]-3-hydroxybicyclo[2.2.2]octan-1-yl}-2-phenyl-1,3-oxazole-4-carboxamide]", "EC50": "< 50"},
      {"smiles": "Cn1nc(C(=O)NC23CCC(NC(=O)COc4ccc(Cl)c(F)c4)(CC2)[C@@H](O)C3)cc1-c1ccccc1", "note": "[Compound 1037, N-{(3S)-4-[2-(4-chloro-3-fluorophenoxy)acetamido]-3-hydroxybicyclo[2.2.2]octan-1-yl}-1-methyl-5-phenyl-1H-pyrazole-3-carboxamide]", "EC50": "< 50"},
      {"smiles": "O=C(COc1ccc(Cl)c(F)c1)NC12CCC(NC(=O)c3nc(-c4ccccc4)cs3)(CC1)C[C@@H]2O", "note": "[Compound 1038, N-{(3S)-4-[2-(4-chloro-3-fluorophenoxy)acetamido]-3-hydroxybicyclo[2.2.2]octan-1-yl}-4-phenyl-1,3-thiazole-2-carboxamide]", "EC50": "< 50"},
      {"smiles": "O=C(COc1ccc(Cl)c(F)c1)NC12CCC(NC(=O)c3cc(-c4ccccc4)on3)(CC1)C[C@@H]2O", "note": "[Compound 1039, N-{(3S)-4-[2-(4-chloro-3-fluorophenoxy)acetamido]-3-hydroxybicyclo[2.2.2]octan-1-yl}-5-phenyl-1,2-oxazole-3-carboxamide]", "EC50": "< 50"},
      {"smiles": "O=C(COc1ccc(Cl)c(F)c1)NC12CCC(NC(=O)c3csc(-c4ccccc4)n3)(CC1)C[C@@H]2O", "note": "[Compound 1040, N-{(3S)-4-[2-(4-chloro-3-fluorophenoxy)acetamido]-3-hydroxybicyclo[2.2.2]octan-1-yl}-2-phenyl-1,3-thiazole-4-carboxamide]", "EC50": "< 50"},
      {"smiles": "O=C(COc1ccc(Cl)c(Cl)c1)NC12CCC(NC(=O)c3cnc(-c4ccccc4)o3)(CC1)C[C@@H]2O", "note": "[Compound 1041, N-{(3S)-4-[2-(3,4-dichlorophenoxy)acetamido]-3-hydroxybicyclo[2.2.2]octan-1-yl}-2-phenyl-1,3-oxazole-5-carboxamide]", "EC50": "< 50"},
      {"smiles": "O=C(COc1ccc(Cl)c(F)c1)NC12CC(NC(=O)c3cnc(-c4cccnc4)o3)(C1)C2", "note": "[Compound 1042, N-{3-[2-(4-chloro-3-fluorophenoxy)acetamido]bicyclo[1.1.1]pentan-1-yl}-2-(pyridin-3-yl)-1,3-oxazole-5-carboxamide]", "EC50": "< 50"},
      {"smiles": "O=C(COc1ccc(Cl)c(Cl)c1)NC12CC(NC(=O)c3cnc(C(F)(F)F)o3)(C1)C2", "note": "[Compound 1043, N-{3-[2-(3,4-dichlorophenoxy)acetamido]bicyclo[1.1.1]pentan-1-yl}-2-(trifluoromethyl)-1,3-oxazole-5-carboxamide]", "EC50": "50 to 250"},
      {"smiles": "O=C(COc1ccc(Cl)c(F)c1)NC12CC(NC(=O)c3cnc(C(F)(F)F)o3)(C1)C2", "note": "[Compound 1044, N-{3-[2-(4-chloro-3-fluorophenoxy)acetamido]bicyclo[1.1.1]pentan-1-yl}-2-(trifluoromethyl)-1,3-oxazole-5-carboxamide]", "EC50": "50 to 250"},
      {"smiles": "O=C(COc1ccc(Cl)c(F)c1)NC12CC(Nc3cncc(C(F)(F)F)c3)(C1)C2", "note": "[Compound 1045, 2-(4-chloro-3-fluorophenoxy)-N-(3-{[5-(trifluoromethyl)pyridin-3-yl]amino}bicyclo[1.1.1]pentan-1-yl)acetamide]", "EC50": "> 2000"},
      {"smiles": "Cn1nnc(-c2ccc(NC34CC(NC(=O)COc5ccc(Cl)c(F)c5)(C3)C4)cn2)n1", "note": "[Compound 1046, 2-(4-chloro-3-fluorophenoxy)-N-(3-{[6-(2-methyl-2H-tetrazol-5-yl)pyridin-3-yl]amino}bicyclo[1.1.1]pentan-1-yl)acetamide]", "EC50": "> 2000"},
      {"smiles": "O=C(COc1ccc(Cl)c(F)c1)NC12CCC(NC(=O)c3ccc4c(c3)OC(F)(F)O4)(CC1)NC2=O", "note": "[Compound 1047, N-{4-[2-(4-chloro-3-fluorophenoxy)acetamido]-3-oxo-2-azabicyclo[2.2.2]octan-1-yl}-2,2-difluoro-2H-1,3-benzodioxole-5-carboxamide]", "EC50": "> 2000"},
      {"smiles": "O=C(COc1ccc(Cl)c(Cl)c1)NC12CCC(NC(=O)c3cc(C(F)F)no3)(CC1)NC2=O", "note": "[Compound 1048, N-{4-[2-(3,4-dichlorophenoxy)acetamido]-3-oxo-2-azabicyclo[2.2.2]octan-1-yl}-3-(difluoromethyl)-1,2-oxazole-5-carboxamide]", "EC50": "> 2000"},
      {"smiles": "Cc1cc(C(=O)NC23CCC(NC(=O)COc4ccc(Cl)c(Cl)c4)(CC2)C(=O)N3)on1", "note": "[Compound 1049, N-{4-[2-(3,4-dichlorophenoxy)acetamido]-3-oxo-2-azabicyclo[2.2.2]octan-1-yl}-3-methyl-1,2-oxazole-5-carboxamide]", "EC50": "> 2000"},
      {"smiles": "O=C(COc1ccc(Cl)c(F)c1)NC12CCC(NC(=O)c3cc(C(F)F)no3)(CC1)NC2=O", "note": "[Compound 1050, N-{4-[2-(4-chloro-3-fluorophenoxy)acetamido]-3-oxo-2-azabicyclo[2.2.2]octan-1-yl}-3-(difluoromethyl)-1,2-oxazole-5-carboxamide]", "EC50": "> 2000"},
      {"smiles": "Cc1cc(C(=O)NC23CCC(NC(=O)COc4ccc(Cl)c(F)c4)(CC2)C(=O)N3)on1", "note": "[Compound 1051, N-{4-[2-(4-chloro-3-fluorophenoxy)acetamido]-3-oxo-2-azabicyclo[2.2.2]octan-1-yl}-3-methyl-1,2-oxazole-5-carboxamide]", "EC50": "> 2000"},
      {"smiles": "O=C(COc1ccc(Cl)c(Cl)c1)NC12CCC(NC(=O)c3coc(C(F)F)n3)(CC1)C[C@@H]2O", "note": "[Compound 1052, N-{(3S)-4-[2-(3,4-dichlorophenoxy)acetamido]-3-hydroxybicyclo[2.2.2]octan-1-yl}-2-(difluoromethyl)-1,3-oxazole-4-carboxamide]", "EC50": "< 50"},
      {"smiles": "O=C(NC12CCC(NC(=O)c3cnc(-c4ccccc4)o3)(CC1)[C@@H](O)C2)c1cnc(-c2ccccc2)o1", "note": "[Compound 1053, N,N′-[(2S)-2-hydroxybicyclo[2.2.2]octane-1,4-diyl]bis(2-phenyl-1,3-oxazole-5-carboxamide)]", "EC50": "< 50"},
      {"smiles": "O=C(NC12CCC(NC(=O)c3cnc(-c4ccccc4)o3)(CC1)C2)c1cnc(-c2ccccc2)o1", "note": "[Compound 1055, N,N′-(bicyclo[2.2.1]heptane-1,4-diyl)bis(2-phenyl-1,3-oxazole-5-carboxamide)]", "EC50": "50 to 250"}
    ]}
  ]
}
